These results are taken from patent publication US20130090385A1, “NOVEL SPECIFIC CASPASE-10 INHIBITORS” (MERCK PATENT GESELLSCHAFT MIT BESCHRANKTER HAFTUNG, priority 2005, published 2013).

Where two headings read alike, the source gives them in different places.

Assay [1] concerns the target T1, Recombinant human caspase-2 (Homo sapiens, UniProt P42575).
T1 sequence (P42575 1-452): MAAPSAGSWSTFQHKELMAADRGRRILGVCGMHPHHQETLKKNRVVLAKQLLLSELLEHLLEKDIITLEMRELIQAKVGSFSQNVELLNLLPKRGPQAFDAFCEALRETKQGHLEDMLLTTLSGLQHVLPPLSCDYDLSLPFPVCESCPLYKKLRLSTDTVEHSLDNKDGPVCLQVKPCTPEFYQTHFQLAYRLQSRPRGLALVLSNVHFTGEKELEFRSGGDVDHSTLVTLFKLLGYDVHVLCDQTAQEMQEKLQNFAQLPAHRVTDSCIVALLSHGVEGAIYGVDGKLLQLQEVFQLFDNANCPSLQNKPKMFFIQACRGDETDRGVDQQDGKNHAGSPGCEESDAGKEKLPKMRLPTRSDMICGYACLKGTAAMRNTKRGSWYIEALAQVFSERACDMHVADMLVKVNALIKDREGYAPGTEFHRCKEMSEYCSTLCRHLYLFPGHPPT
The experiment in a line: delayed-time fluorescence caspase inhibition test, caspase-2.
Method: (§1) The substrate used is a tetrapeptide specific to this caspase, having at one of its ends a fluorescent europium marker (W1284) and at the other end a europium chelate fluorescence quencher (QSy-7): Eu-W1284-CIETDK-QSy-7.
(§2) The caspase cleaves the substrate, releasing the quencher. Thus, by excitation at 340 nm, the signal emitted by the fluorescence of the europium is read by WALLAC Victor^2 reader at 615 nm.
(§3) They are ready for use or may be divided into aliquots and stored at −80° C.. […] 20 μl of this solution are distributed per well of the assay plate. […] The assay is performed with 1 U of enzyme per well, by distributing 20 μl of the diluted solution per well. • The standard inhibitors: The standard inhibitors are dissolved in DMSO to a concentration of 10 mM. They are tested at IC20 and at IC50 on the caspases they inhibit (see following table).
(§4) They are then distributed in the wells using this solution to reach the final concentration of IC20 or IC50, i.e. 3 μl in 33 μl of final reaction volume (dilution 1/11). Thus, the final concentration of DMSO in the well is 0.3% (v/v) final. […] An intermediate dilution (1/6.6) is prepared in DMSO by diluting 10 μl of the concentrated solution in 66 μl of DMSO (final volume). […] The inhibitors are then distributed in the wells to reach the final screening concentration (10 μM), i.e. 3 μl in 33 μl of final reaction volume (dilution 1/11) and a final concentration of DMSO of 0.3% (v/v) in the well. • Protocol:
(§5) The incubation takes place for 3 hours 30 minutes at room temperature before reading the fluorescence in delayed time on the WALLAC Victor^2 reader with the filters corresponding to the fluorescence of europium (excitation filter: 340 nm, emission filter: 615 nm).
(§6) The inhibitors are diluted using solutions with concentrations of less than 20 mM in DMSO, and then prediluted in the caspase buffer. […] The specificity factor for caspase-10 is calculated as the following ratio:

Assay [2] addresses T2, Recombinant human caspase-3 (Homo sapiens, UniProt P42574).
T2 sequence (P42574 29-277): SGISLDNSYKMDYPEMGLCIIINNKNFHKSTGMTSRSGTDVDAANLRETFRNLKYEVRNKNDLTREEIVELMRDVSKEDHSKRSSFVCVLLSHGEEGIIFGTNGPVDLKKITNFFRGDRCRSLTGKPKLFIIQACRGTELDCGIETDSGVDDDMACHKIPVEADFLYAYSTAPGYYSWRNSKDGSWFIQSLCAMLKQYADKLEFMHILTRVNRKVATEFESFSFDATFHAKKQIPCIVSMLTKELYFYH
The experiment in a line: delayed-time fluorescence caspase inhibition test, caspase-3.
Method: as §1, §2
20 μl of this solution are distributed per well of the assay plate. […] The assay is performed with 1 U of enzyme per well, by distributing 20 μl of the diluted solution per well. • The standard inhibitors: The standard inhibitors are dissolved in DMSO to a concentration of 10 mM. They are tested at IC20 and at IC50 on the caspases they inhibit (see following table). The concentrations mentioned in the table are the final concentrations in the assay wells.
as §4
The volumes and the protocol were optimised for automated use.
as §5
The inhibitors are diluted using solutions with concentrations of less than 20 mM in DMSO, and then prediluted in the caspase buffer.

Assay [3] addresses T3, Recombinant human caspase-6 (Homo sapiens, UniProt P55212).
T3 sequence (P55212 24-293): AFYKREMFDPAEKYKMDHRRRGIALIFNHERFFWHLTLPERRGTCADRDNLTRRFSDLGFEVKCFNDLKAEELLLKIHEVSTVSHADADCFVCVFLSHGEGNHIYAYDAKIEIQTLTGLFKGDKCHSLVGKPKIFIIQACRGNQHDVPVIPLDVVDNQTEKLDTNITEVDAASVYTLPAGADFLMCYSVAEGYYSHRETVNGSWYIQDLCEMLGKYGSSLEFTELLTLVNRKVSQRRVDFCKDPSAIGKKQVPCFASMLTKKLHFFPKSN
Put plainly: delayed-time fluorescence caspase inhibition test, caspase-6.
Method: as §1, §2, §3, §4, §5, §6

Assay [4] deals with Recombinant human caspase-8 (Homo sapiens, UniProt Q14790). Put plainly: delayed-time fluorescence caspase inhibition test, caspase-8.
Recombinant human caspase-8, sequence (Q14790 217-479): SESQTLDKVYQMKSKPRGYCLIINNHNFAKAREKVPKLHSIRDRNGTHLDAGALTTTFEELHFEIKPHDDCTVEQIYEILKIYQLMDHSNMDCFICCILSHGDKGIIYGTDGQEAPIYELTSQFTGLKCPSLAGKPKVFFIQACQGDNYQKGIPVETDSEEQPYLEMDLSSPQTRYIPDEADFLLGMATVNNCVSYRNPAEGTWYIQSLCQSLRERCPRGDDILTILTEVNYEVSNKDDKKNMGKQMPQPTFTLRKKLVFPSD
Method: as §1, §2, §3, §4, §5, §6
Assay [5] concerns the target T4, Recombinant human caspase-9 (Homo sapiens, UniProt P55211).
T4 sequence (P55211 1-416): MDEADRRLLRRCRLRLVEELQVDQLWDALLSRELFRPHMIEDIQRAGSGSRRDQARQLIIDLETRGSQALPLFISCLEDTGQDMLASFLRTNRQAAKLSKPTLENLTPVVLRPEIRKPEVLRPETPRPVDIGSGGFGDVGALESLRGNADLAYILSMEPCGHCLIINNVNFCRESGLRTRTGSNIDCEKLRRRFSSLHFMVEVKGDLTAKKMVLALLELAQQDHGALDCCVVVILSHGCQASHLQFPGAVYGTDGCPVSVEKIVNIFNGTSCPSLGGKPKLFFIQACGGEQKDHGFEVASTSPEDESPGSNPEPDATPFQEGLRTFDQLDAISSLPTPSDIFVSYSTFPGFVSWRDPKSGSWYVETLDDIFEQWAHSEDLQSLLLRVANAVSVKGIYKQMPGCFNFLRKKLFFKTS
Put plainly: delayed-time fluorescence caspase inhibition test, caspase-9.
Method: as §1, §2, §3, §4, §5, §6

For assay [6], the target named is T5, Recombinant human caspase-10 (Homo sapiens, UniProt Q92851).
T5 sequence (Q92851 220-521): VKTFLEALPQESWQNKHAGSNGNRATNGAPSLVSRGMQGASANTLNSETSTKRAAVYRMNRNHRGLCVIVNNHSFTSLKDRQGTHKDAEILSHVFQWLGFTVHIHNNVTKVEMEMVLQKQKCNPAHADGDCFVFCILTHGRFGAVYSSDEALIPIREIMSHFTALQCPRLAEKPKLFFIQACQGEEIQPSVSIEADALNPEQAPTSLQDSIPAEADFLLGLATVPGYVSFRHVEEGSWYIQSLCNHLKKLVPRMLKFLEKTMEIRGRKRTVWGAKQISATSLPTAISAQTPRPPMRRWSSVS
Put plainly: delayed-time fluorescence caspase inhibition test, caspase-10.
Method: as §1, §2, §3, §4, §5, §6

The term IC50 denotes the concentration at which inhibition is half-maximal. As to `O=S(=O)(NCC1(Cc2ccc(CCO)cc2)CCCC1)c1cccc(C(F)(F)F)c1` [Example 50], the IC50 was over 200 µM in assay [1]; over 200 µM in assay [2]; over 200 µM in assay [3]; over 200 µM in assay [4]; over 200 µM in assay [5]; 3.16 µM in assay [6].
Take `Cc1ccc(S(=O)(=O)NCC2(Cc3ccc(CCO)cc3)CCC2)cc1` [Example 57]: the IC50 in assay [1] is over 200 µM; in assay [2] it was over 200 µM; in assay [3], over 200 µM; in assay [4] it was over 200 µM; in assay [5], over 200 µM; in assay [6], 3.05 µM.
On to `O=S(=O)(NCC1(Cc2ccc(CCO)cc2)CCC1)c1ccc(Cl)cc1` [Example 56], for which the IC50 was over 200 µM in assay [1]; over 200 µM in assay [2]; over 200 µM in assay [3]; over 200 µM in assay [4]; over 200 µM in assay [5]; 0.989 µM in assay [6].
As for `CS(=O)(=O)CCc1ccc(CC2(CNS(=O)(=O)c3cccc4ccccc34)CCC2)cc1` [Example 30, N-[(1-{4-[2-(methylsulfonyl)ethyl]benzyl}cyclobutyl)methyl]naphthalene-1-sulfonamide], the IC50 was over 200 µM in assay [1]; over 200 µM in assay [2]; over 200 µM in assay [3]; over 200 µM in assay [4]; over 200 µM in assay [5]; 4.46 µM in assay [6].
As for `Cc1ccc(S(=O)(=O)NCC2(Cc3ccc(CCO)cc3)CCCC2)cc1` [Example 59], the half-inhibitory concentration (IC50) in assay [1] is over 200 µM; in assay [2] it was over 200 µM; in assay [3] it was over 200 µM; in assay [4], over 200 µM; in assay [5], over 200 µM; in assay [6], 4.06 µM.
For the molecule `O=S(=O)(NCC1(Cc2ccc(CCO)cc2)CCCC1)c1c(F)c(F)c(F)c(F)c1F` [Example 58], the IC50 is over 200 µM in assay [1]; over 200 µM in assay [2]; over 200 µM in assay [3]; over 200 µM in assay [4]; 46.7 µM in assay [5]; 0.143 µM in assay [6].
In the case of `O=S(=O)(NCC1(Cc2ccc(CCO)cc2)CCCC1)c1cc(F)c(F)c(F)c1` [Example 61], the IC50 in assay [1] was over 200 µM; in assay [2], over 200 µM; in assay [3], over 200 µM; in assay [4], over 200 µM; in assay [5], over 200 µM; in assay [6], 1.79 µM.
`Cc1cccc(S(=O)(=O)NCC2(Cc3ccc(CCO)cc3)CCCC2)c1` [Example 63]: the IC50 was over 200 µM in assay [1]; over 200 µM in assay [2]; over 200 µM in assay [3]; over 200 µM in assay [4]; over 200 µM in assay [5]; 6.56 µM in assay [6].
Take `O=S(=O)(NCC1(Cc2ccc(CCO)cc2)CCCC1)c1ccc(Cl)cc1` [Example 33]: the IC50 is over 200 µM in assay [1] (read-out: Inhibition IC50 Caspase-2, tested 100 nM to 200 μM, 1% DMSO, 3 h 30 min at room temperature); over 200 µM in assay [2] (read-out: Inhibition IC50 Caspase-3, tested 100 nM to 200 μM, 1% DMSO, 3 h 30 min at room temperature); over 200 µM in assay [3] (read-out: Inhibition IC50 Caspase-6, tested 100 nM to 200 μM, 1% DMSO, 3 h 30 min at room temperature); over 200 µM in assay [4] (read-out: Inhibition IC50 Caspase-8, tested 100 nM to 200 μM, 1% DMSO, 3 h 30 min at room temperature); over 200 µM in assay [5] (read-out: Inhibition IC50 Caspase-9, tested 100 nM to 200 μM, 1% DMSO, 3 h 30 min at room temperature); 1.7 µM in assay [6] (read-out: Inhibition IC50 Caspase-10, tested 100 nM to 200 μM, 1% DMSO, 3 h 30 min at room temperature).
On to `O=S(=O)(NCC1(Cc2ccc(CCO)cc2)CCCC1)c1ccc(Cl)c(Cl)c1` [Example 45], for which the IC50 is over 200 µM in assay [1]; over 200 µM in assay [2]; over 200 µM in assay [3]; over 200 µM in assay [4]; over 200 µM in assay [5]; 0.297 µM in assay [6].
With `CC(=O)c1ccc(S(=O)(=O)NCC2(Cc3ccc(CCO)cc3)CCCC2)cc1` [Example 35], the IC50 is over 200 µM in assay [1]; over 200 µM in assay [2]; over 200 µM in assay [3]; over 200 µM in assay [4]; over 200 µM in assay [5]; 2.88 µM in assay [6].
For the molecule `CS(=O)(=O)c1ccc(S(=O)(=O)NCC2(Cc3ccc(CCO)cc3)CCCC2)cc1` [Example 36], the IC50 was over 200 µM in assay [1]; over 200 µM in assay [2]; over 200 µM in assay [3]; over 200 µM in assay [4]; over 200 µM in assay [5]; 9.66 µM in assay [6].
Regarding `O=S(=O)(NCC1(Cc2ccc(CCOCC3CC3)cc2)CCC1)c1ccc(Cl)cc1Cl` [Example 1, 2,4-Dichloro-N-[(1-{4-[2-(cyclopropylmethoxy)ethyl]benzyl}cyclobutyl)methyl]benzenesulfonamide], the IC50 in assay [1] is over 200 µM; in assay [2] it was over 200 µM; in assay [3], over 200 µM; in assay [4] it was over 200 µM; in assay [5] it was over 200 µM; in assay [6] it was 0.22 µM.
For `O=S(=O)(NCC1(Cc2ccc(CCO)cc2)CCCC1)c1cccc(Cl)c1` [Example 34], the IC50 in assay [1] was over 200 µM; in assay [2], over 200 µM; in assay [3], over 200 µM; in assay [4], over 200 µM; in assay [5], over 200 µM; in assay [6], 3.5 µM.
With `COc1ccc(S(=O)(=O)NCC2(Cc3ccc(CCO)cc3)CCCC2)cc1` [Example 47], the IC50 in assay [1] is over 200 µM; in assay [2] it was over 200 µM; in assay [3] it was over 200 µM; in assay [4], over 200 µM; in assay [5], over 200 µM; in assay [6], 5.51 µM.
